Results: PMC8037910, “Effect of Chronic Administration of 5-(3-chlorophenyl)-4-Hexyl-2,4 -Dihydro-3H-1,2,4-Triazole-3-Thione (TP-315)—A New Anticonvulsant Drug Candidate—On Living Organisms” (International Journal of Molecular Sciences, 2021)
Read-outs that look alike come from different tables or passages of the source.

Experiments:
Albino Swiss mice [1] = experiment: Morphological blood parameters after chronic administration; format: in vivo; settings: 47.6 mg/kg i.p. for 14 days
Procedure: (§1) The experiments were carried out on adult male Albino Swiss mice weighing 20 ± 5 g. […] The mice from the control group (8 mice) received 0.9% NaCl solution i.p. once daily for 14 days.
(§2) After completion of the experimental procedure (on the 15th day—24h after the last injection), the animals were decapitated. Their livers and kidneys were collected for histopathological examination, while blood was drawn for biochemical and morphological tests and for HPLC-FL determination of TP-315 in serum.
For the determination of biochemical parameters (ALT, AST, GGT, creatinine, urea), whole blood was collected in clotting activator tubes (Sarstadt, Nümbrecht, Germany). To obtain serum, blood tubes were centrifuged at 4200 RPM for 10 min. Biochemical determinations were performed on an ERBA XL 640 analyzer (ERBA Mannheim, Germany) according to the manufacturer’s standard procedure. Whole blood for the determination of morphological parameters was collected in ethylenediaminetetraacetic acid (EDTA) tubes (Sarstadt, Nümbrecht, Germany). Morphological parameters were determined on the MYTHIC 18 Cormay analyzer (Cormay, Lublin, Poland) according to the manufacturer’s standard procedure.

CYP2C19 = target: T1, CYP2C19 (Homo sapiens, UniProt P33261); experiment: Vivid CYP450 screening kit, CYP2C19; format: biochemical; settings: 0.015 µg/mL, 20 min incubation, p < 0.05
T1 construct: purchased Thermo Fisher Scientific
T1 sequence (P33261 whole entry): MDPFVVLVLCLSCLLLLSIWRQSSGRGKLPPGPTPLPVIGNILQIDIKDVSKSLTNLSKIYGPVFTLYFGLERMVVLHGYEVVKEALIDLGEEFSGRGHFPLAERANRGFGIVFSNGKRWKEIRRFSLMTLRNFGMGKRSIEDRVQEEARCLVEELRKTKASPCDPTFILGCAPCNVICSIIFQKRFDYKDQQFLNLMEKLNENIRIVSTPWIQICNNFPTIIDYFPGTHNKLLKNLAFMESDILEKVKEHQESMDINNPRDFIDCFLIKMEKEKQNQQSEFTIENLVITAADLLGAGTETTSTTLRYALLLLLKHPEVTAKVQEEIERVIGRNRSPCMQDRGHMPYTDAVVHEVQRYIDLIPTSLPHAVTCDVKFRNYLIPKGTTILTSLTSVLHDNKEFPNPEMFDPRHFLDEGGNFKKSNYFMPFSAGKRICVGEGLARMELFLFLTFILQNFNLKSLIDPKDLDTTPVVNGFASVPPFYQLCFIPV
Procedure: (§3) Possible inhibitory effect of TP-315 on the catalytic activity of human cytochrome CYP450 enzymes was tested using Vivid CYP450 screening kits (Thermo Fisher Scientific, Waltham, MA, USA) according to the manufacturer’s standard procedure (Vivid BOMCC substrate CYP2B6 blue, Vivid DBOMF substrate CYP3A4 green, Vivid DBOMF substrate CYP3A5 green, Vivid EOMCC substrate CYP2C19 blue, Vivid MOBFC substrate CYP2D6 cyan). The experiment was carried out in the endpoint test mode (reading after 20 min of incubation). The test compound was dissolved in DMSO (starting concentrations, 2.5× concentrated); to avoid the influence of the solvent on the enzyme activity, the results were compared with the solvent control. The influence of TP-315 on the activity of selected enzymes was tested at concentrations of 0.015, 0.1, 0.5, 1, 2.5, 5, and 10 μg/mL. The positive control compounds (inhibitors) were miconazole (for CYP2C19 and CYP2B6), quinidine (for CYP2D6), and ketoconazole (for CYP3A4 and CYP3A5). Inhibitor concentrations were selected according to the manufacturer’s recommendations to achieve ≥90% inhibition. All inhibitors were obtained from Sigma-Aldrich (St. Louis, MO, USA). The BioTek Synergy H1 reader (BioTek Instruments, Inc., USA) was used to read the fluorescence according to the manufacturer’s guidelines. The tests were performed in duplicate.

CYP3A4 = target: T2, CYP3A4 (Homo sapiens, UniProt P08684); experiment: Vivid CYP450 screening kit, CYP3A4; format: biochemical; settings: 0.015 μg/mL, 20 min incubation, p > 0.05
T2 construct: purchased Thermo Fisher Scientific
T2 sequence (P08684 whole entry): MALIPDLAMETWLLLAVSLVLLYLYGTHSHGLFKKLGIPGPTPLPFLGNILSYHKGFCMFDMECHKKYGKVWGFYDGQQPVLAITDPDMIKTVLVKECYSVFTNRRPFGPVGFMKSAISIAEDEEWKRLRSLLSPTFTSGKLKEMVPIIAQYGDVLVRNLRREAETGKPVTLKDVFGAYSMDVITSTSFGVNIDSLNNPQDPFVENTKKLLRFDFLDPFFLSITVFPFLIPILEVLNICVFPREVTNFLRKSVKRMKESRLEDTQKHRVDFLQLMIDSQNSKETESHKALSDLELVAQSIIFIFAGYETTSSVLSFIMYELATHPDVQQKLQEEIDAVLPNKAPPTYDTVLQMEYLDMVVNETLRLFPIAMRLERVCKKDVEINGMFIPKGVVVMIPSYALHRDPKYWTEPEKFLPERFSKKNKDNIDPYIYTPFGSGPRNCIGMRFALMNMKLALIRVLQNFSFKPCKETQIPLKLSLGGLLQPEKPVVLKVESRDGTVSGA
Procedure: as §3

mice = system: mice; set-up: method as in PMID 23291122, PMID 25226229, PMID 25090118; unit not given here; settings: chimney test, cited from earlier work
Albino Swiss mice [2] = experiment: Histopathological examination of kidneys and liver after chronic administration; format: in vivo; settings: 47.6 mg/kg i.p. for 14 days, H&E staining, vs control group
Procedure: as §1, §2
The kidneys and livers of mice from the control and experimental groups were subjected to histopathological evaluation. The organs were fixed in 10% buffered formalin at pH 7.2 and then fixed with increasing concentrations of alcohol solutions, acetone, and xylene in paraffin blocks using a tissue processor (Leica TP-20, Leica Biosystems, Wetzlar, Germany). 4 μm thick tissue sections cut with a sledge microtome (Leica SR-200, Leica Biosystems, Wetzlar, Germany) were transferred onto slides. The preparations for the histopathological samples were stained with hematoxylin and eosin and evaluated under a light microscope (Nikon Eclipse E-600, […]). Reagents were purchased from Sigma-Aldrich (St. Louis, MO, USA).

CYP2B6 = target: T3, CYP2B6 (Homo sapiens, UniProt P20813); experiment: Vivid CYP450 screening kit, CYP2B6; format: biochemical; settings: 0.015 μg/mL, 20 min incubation, p > 0.05
T3 construct: purchased Thermo Fisher Scientific
T3 sequence (P20813 1-491): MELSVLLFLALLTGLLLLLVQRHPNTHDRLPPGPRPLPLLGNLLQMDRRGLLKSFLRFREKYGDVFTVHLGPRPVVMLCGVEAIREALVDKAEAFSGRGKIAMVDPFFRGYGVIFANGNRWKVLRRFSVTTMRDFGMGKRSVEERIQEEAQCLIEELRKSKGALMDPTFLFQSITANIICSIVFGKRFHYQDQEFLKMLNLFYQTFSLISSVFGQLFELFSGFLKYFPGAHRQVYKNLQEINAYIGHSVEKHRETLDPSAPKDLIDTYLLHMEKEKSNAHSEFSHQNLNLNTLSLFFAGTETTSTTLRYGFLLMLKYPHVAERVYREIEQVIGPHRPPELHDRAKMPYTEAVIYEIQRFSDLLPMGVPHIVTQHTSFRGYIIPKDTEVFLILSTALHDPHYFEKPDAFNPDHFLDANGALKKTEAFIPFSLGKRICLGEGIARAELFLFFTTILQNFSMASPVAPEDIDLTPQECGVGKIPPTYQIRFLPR
Procedure: as §3

[3] = target: batrachotoxin-binding site on voltage-gated sodium channels; set-up: method as in PMID 25226229, PMID 30594731, PMID 28824309; settings: read-out: Affinity towards Batrachotoxin-Binding Site on Sodium Channels IC50 ± SEM; cited from earlier work
CYP3A5 = target: T4, CYP3A5 (Homo sapiens, UniProt P20815); experiment: Vivid CYP450 screening kit, CYP3A5; format: biochemical; settings: 0.015 μg/mL, 20 min incubation, p > 0.05
T4 construct: purchased Thermo Fisher Scientific
T4 sequence (P20815 whole entry): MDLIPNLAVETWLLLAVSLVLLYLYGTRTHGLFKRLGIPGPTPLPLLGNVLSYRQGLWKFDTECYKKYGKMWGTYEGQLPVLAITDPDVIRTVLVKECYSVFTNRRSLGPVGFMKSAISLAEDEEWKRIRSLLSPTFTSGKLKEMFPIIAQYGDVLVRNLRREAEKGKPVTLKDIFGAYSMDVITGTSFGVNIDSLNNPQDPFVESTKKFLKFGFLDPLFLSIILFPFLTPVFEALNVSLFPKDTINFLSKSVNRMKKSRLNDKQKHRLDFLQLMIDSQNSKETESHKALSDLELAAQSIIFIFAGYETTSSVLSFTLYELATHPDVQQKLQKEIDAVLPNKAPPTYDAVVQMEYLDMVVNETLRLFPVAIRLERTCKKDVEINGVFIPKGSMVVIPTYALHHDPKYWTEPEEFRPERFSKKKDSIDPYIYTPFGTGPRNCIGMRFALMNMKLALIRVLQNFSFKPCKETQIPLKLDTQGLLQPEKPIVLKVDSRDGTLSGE
Procedure: as §3

[4] = system: maximal electroshock-induced seizure (MES); set-up: method as in PMID 23291122, PMID 25226229, PMID 25090118; settings: mice, cited from earlier work

SMILES: CCCCCCn1c(-c2cccc(Cl)c2)n[nH]c1=S [TP-315, 5-(3-Chlorophenyl)-4-hexyl-2,4-dihydro-3H-1,2,4-triazole-3-thione]
- Effect of chronic administration on hematological parameters vs control group (Albino Swiss mice [1]; unpaired t-test p > 0.05): does not cause disturbances in the white blood cell and red cell systems
- BAS, basophils (Albino Swiss mice [1]; examined group, mean ± SD): 0.44 ± 0.19%
- EOS, eosinophile (Albino Swiss mice [1]; examined group, mean ± SD): 6.54 ± 2.05%
- HCT, hematocrit (Albino Swiss mice [1]; examined group, mean ± SD): 41.08 ± 3.65%
- HGB, hemoglobin concentration (Albino Swiss mice [1]; examined group, mean ± SD): 13.88 ± 1.28 g/dL
- LYM, lymphocytes (Albino Swiss mice [1]; examined group, mean ± SD): 65.7 ± 6.96%
- MCH, mean corpuscular hemoglobin (Albino Swiss mice [1]; examined group, mean ± SD): 16.62 ± 0.38 pg
- MCHC, mean corpuscular hemoglobin concentration (Albino Swiss mice [1]; examined group, mean ± SD): 33.84 ± 0.46 g/dL
- MCV, mean corpuscular volume (Albino Swiss mice [1]; examined group, mean ± SD): 49.1 ± 20.06 µm3
- MON, monocytes (Albino Swiss mice [1]; examined group, mean ± SD): 4.04 ± 1.17%
- MPV, mean platelet volume (Albino Swiss mice [1]; examined group, mean ± SD): 5.08 ± 0.25 µm3
- NEU, neutrophils (Albino Swiss mice [1]; examined group, mean ± SD): 23.28 ± 7.19%
- PCT, plateletcrit (Albino Swiss mice [1]; examined group, mean ± SD): 0.53 ± 0.16%
- PDW, platelet distribution width (Albino Swiss mice [1]; examined group, mean ± SD): 15.24 ± 0.17
- PLT, platelet (Albino Swiss mice [1]; examined group, mean ± SD): 1034.8 ± 268.44 10*3/µL
- RBC, red blood cells (Albino Swiss mice [1]; examined group, mean ± SD): 8.37 ± 0.84 10*6/μL
- RDW-CV, red blood cell distribution width (Albino Swiss mice [1]; examined group, mean ± SD): 13.46 ± 0.56%
- RDW-SD, red blood cell distribution width standard deviation (Albino Swiss mice [1]; examined group, mean ± SD): 28.46 ± 1.36 µm3
- WBC, white blood cells (Albino Swiss mice [1]; examined group, mean ± SD): 4.25 ± 1.2 10*3/µL
- Inhibition of CYP2C19 activity compared to the control (CYP2C19): statistically significantly inhibited
- Inhibition of CYP3A4 activity compared to the control (CYP3A4): did not statistically significantly inhibit
- Neurotoxicity in Chimney or Rotarod (†) Tests in Mice (mice; pretreatment time 15 min): 462.9 ± 20.0
- Neurotoxicity in Chimney or Rotarod (†) Tests in Mice (mice; pretreatment time 30 min): 462.9 ± 20.0
- Neurotoxicity in Chimney or Rotarod (†) Tests in Mice (mice; pretreatment time 60 min): 456.9 ± 19.7
- Neurotoxicity in Chimney or Rotarod (†) Tests in Mice (mice; pretreatment time 120 min): 448.1 ± 21.7
- Histopathological examination of kidneys (Albino Swiss mice [2]): no differences in the microscopic structure of kidneys
- Histopathological examination of liver (Albino Swiss mice [2]): normal organ without pathological changes
- Inhibition of CYP2B6 activity compared to the control (CYP2B6): did not statistically significantly inhibit
- IC50 [3]: 6.21 ± 0.8 µM
- Inhibition of CYP3A5 activity compared to the control (CYP3A5): did not statistically significantly inhibit
- Anticonvulsant Activity in MES Test ED50 ± S.E. ([4]; pretreatment time 15 min): 47.6 ± 3.8 mg/kg
- Anticonvulsant Activity in MES Test ED50 ± S.E. ([4]; pretreatment time 30 min): 68.3 ± 10.3 mg/kg
- Anticonvulsant Activity in MES Test ED50 ± S.E. ([4]; pretreatment time 60 min): 98.1 ± 16.4 mg/kg
- Anticonvulsant Activity in MES Test ED50 ± S.E. ([4]; pretreatment time 120 min): 159.7 ± 21.7 mg/kg
